Earlier results in patent US20240189459A1, “METASTABLE-FREE LANTHANIDE BASED CONTRAST AGENTS AND METHOD” (Inventure LLC, priority 2022, published 2024).

Conditions: thermodynamic stability constant of the DOTA complex with the listed metal ion

Structure (SMILES)	Stability Constant
O=C([O-])CN1CCN(CC(=O)[O-])CCN(CC(=O)[O-])CCN(CC(=O)[O-])CC1.[Gd+3] [Gd^+3]	24.7
O=C([O-])CN1CCN(CC(=O)[O-])CCN(CC(=O)[O-])CCN(CC(=O)[O-])CC1.[Eu+3] [Eu^+3]	23.5
O=C([O-])CN1CCN(CC(=O)O)CCN(CC(=O)O)CCN(CC(=O)O)CC1.[Na+] [Na^+1]	4.2
O=C([O-])CN1CCN(CC(=O)[O-])CCN(CC(=O)O)CCN(CC(=O)O)CC1.[Zn+2] [Zn^+2]	20.8
O=C([O-])CN1CCN(CC(=O)[O-])CCN(CC(=O)[O-])CCN(CC(=O)[O-])CC1.[Pr+3] [Pr^+3]	23
O=C([O-])CN1CCN(CC(=O)[O-])CCN(CC(=O)[O-])CCN(CC(=O)[O-])CC1.[Fe+3] [Fe^+3]	29.4
O=C([O-])CN1CCN(CC(=O)[O-])CCN(CC(=O)[O-])CCN(CC(=O)[O-])CC1.[Cu+2] [Cu^+2]	22.3
O=C([O-])CN1CCN(CC(=O)[O-])CCN(CC(=O)[O-])CCN(CC(=O)[O-])CC1.[Dy+3] [Dy^+3]	24.8
O=C([O-])CN1CCN(CC(=O)[O-])CCN(CC(=O)[O-])CCN(CC(=O)[O-])CC1.[Tm+3] [TM^+3]	24.4
O=C([O-])CN1CCN(CC(=O)[O-])CCN(CC(=O)O)CCN(CC(=O)O)CC1.[Ca+2] [Ca^+2]	17.2
O=C([O-])CN1CCN(CC(=O)[O-])CCN(CC(=O)O)CCN(CC(=O)O)CC1.[Mg+2] [Mg^+2]	11.9
